In US10039729B2, “Use of kukoamine A and kukoamine B” (Tianjin Chase Sun Pharmaceutical Co., Ltd., priority 2010, dated 2018):
Like-named read-outs stand apart in the source and are kept apart here.

Tests used:
[1] = Neutralization of LPS in vitro (TAL / kinetic turbidimetric limulus test); type: biochemical; settings: for neutralizing activity with LPS: 1, 2 and 4 μg/ml with equal volume of LPS (2.0 ng/ml), 30 min, p<0.05 or p<0.01, dose-dependent; for IC50: LPS 2 ng/ml, 0.5-128 μM, read-out: Half inhibitory concentration (IC50) on LPS
Experimental: 2.3.1 Methods: CL-4b was dissolved into LPS-free water to make 8 μg/ml solution, and incubated with equal volume of LPS (1 ng/mL) at 37° C. for 30 min. Subsequently, 100 μl mixed solution of CL-4b and LPS was added with equal volume of the quantitative TAL reagents dissolved in LPS-free water, gently shaked to mix the contents, and reacted at 37° C. for 60 min in kinetic tube reader. The agglutination of TAL reagent induced by the existence of non-neutralized LPS was measured. The mixture of LPS and equal volume of LPS-free water act as positive control. Each group contained three repeated tubes. The result was expressed in EU/ml, the endotoxin unit of LPS. Operation was performed according to the manufacturer's instructions of EDS-99 Bacterial Endotoxin Detecting system.
4.1 Methods: KA and KB (1, 2 and 4 μg/ml) were separately mixed with equal volume of LPS (2.0 ng/ml) and pre-incubated at 37 for 30 min; LPS control group was added with equal volume of nonpyrogenic water; LPS value was detected by kinetic turbidimetric limulus test after incubation; detection of each concentration was repeated three times; LPS content was expressed by means of mean±standard deviation; operation was performed according to the manufacturer's instructions of EDS-99 Bacterial Endotoxin Detecting system.
11.1 Methods: KB and PMB were separately diluted with LPS-free water to make solutions of 0.5, 1, 2, 4, 8, 16, 32, 64 and 128 μM; according to the methods in embodiment 4, above solutions were separately mixed with equal volume of LPS (2 ng/ml), and neutralizing activity was assayed.

CpG DNA = assay: Affinity biosensor binding with immobilized CpG DNA; settings: for affinity / binding with CpG DNA: 4 μM solution; for affinity / binding with CpG DNA / affinity with CpG DNA: 5 μl loaded; for affinity with CpG DNA: 100 μM operating solution
Description: Immobilization of lipid A and CpG DNA: Using Optically-Based Affinity Biosensors technology, Lipid A, the biologic active centres of LPS, and CpG DNA were respectively, immobilized on the reacting surfaces of cuvettes in an IAsys plus affinity biosensor according to the manufacturer's instructions of IAsys Affinity Sensor. The end of hydrophobic side chain of lipid A was immobilized on cuvette with hydrophobic surface, and the phosphate group (active group of lipid A) at the other end was floating and exposing to the outside, which act as target spot of binding with active constituents for disease treatment in traditional Chinese medicine. The active constituents in solution were binded to lipid A through electrostatic interaction. Biotinylated CpG DNA was immobilized on the surface of a biotin cuvette by linking to avidin, which had been coated on the surface of a biotin cuvette, and then the unlabeled group of CpG DNA was floating and exposing to the outside, which act as target spot of binding with active constituents for disease treatment in traditional Chinese medicine. The active constituents in solution were binded to CpG DNA through the electrostatic interaction and embodiment.
Detection of the aqueous herbal extract: The crude drugs of 114 traditional Chinese herbs were pulverized. 1 g of each powder was added with 10 ml distilled water, boiled at 100° C. for 1.5 h, centrifuged at 4000 rpm for 20 min, filtrated and then collected the supernatant. 5 μl of aqueous herbal extracts of each herb were used to detect their binding with lipid A or CpG DNA. Here are the steps: Binding reaction: 45 μl PBS was added in cuvette; then 5 μl samples was added in cuvette; liquid were draw-out after binding response reach a plateau; Dissociation: Cuvette was washed thrice in 50 μl PBS; liquid were draw-out after dissociation reach a plateau; Regeneration: Cuvette was washed thrice in 50 μl 0.1N HCl; liquid were draw-out after regeneration reach a plateau; Cuvette was washed thrice in 50 μl PBS; next cycle was started to detect new sample after curves back to baseline levels and smoothed. Data analysis was performed using the FASTplot software after detection finished.
2.1.1 Methods: 500 g Lycii cortex was added with 5 L distilled water, soaked for 24 h, boiled at 100 for 1 h, filtered by coarse filter paper, and centrifuged at 8000 rpm/min for 30 min, and the supernatant was collected and concentrated to 1 L under reduced pressure. The supernatant was loaded onto AB-8 Macroporous adsorption resin, and eluted with distilled water and gradient ethanol (10%, 20%, 40% and 100%) successively. The eluted fractions were separately collected, and lyophilized after concentrated under reduced pressure. Five constituents were obtained, and named CL-1 to -5 according to their elution order. CL constituents were separately dissolved in PBS to make 1.0 mg/ml solution, 5 μl of which were loaded. Their binding activity with lipid A and CpG DNA were detected according to methods of embodiment 1.
2.2.1 Methods: CL-4 lyophilization powder was diluted into ultrapure water to make 100 mg/ml solution, filtered by a 0.45 μm filter membrane, loaded onto D001 cationic exchange gel column, and eluted with distilled water, 0.3 M Na2HPO4 and 0.5 M Na2HPO4 successively. The eluted fractions were separately collected, and lyophilized after concentrated under reduced pressure. Three constituents were obtained, and named CL-4a, -4b and -4c according to their elution order. CL-4 constituents were separately dissolved in PBS to make 1.0 mg/ml solution, 5 μl of which were loaded. Their binding activity with lipid A and CpG DNA were detected according to methods of embodiment 1.
3.1 Methods: KA and KB were separately dissolved to make 100 μM operating solution; 5 μl of the solution was loaded; their binding activity with lipid A and CpG DNA were detected according to methods of embodiment 1. […]

Compound | neutralizing activity with LPS [1] | IC50 [1] [nM] | affinity / binding with CpG DNA (CpG DNA) | affinity with CpG DNA (CpG DNA) | Kd (CpG DNA; KB 0.25-4 μM, IAsys FASTfit, read-out: dissociation equilibrium constant (KD) with CpG DNA) [nM] | Kd (CpG DNA; with CpG DNA, read-out: dissociation equilibrium constant (KD = kass/kdiss)) [nM]
NCCCN(CCCCNCCCNC(=O)CCc1ccc(O)c(O)c1)C(=O)CCc1ccc(O)c(O)c1 [KB, Kukoamine B] | significant neutralizing activity | 14900 | high affinity | high affinity | 660 | 664
polymyxin B [PMB, reference compound] | – | 4800 | almost has no binding effects | – | – | –
O=C(CCc1ccc(O)c(O)c1)NCCCNCCCCNCCCNC(=O)CCc1ccc(O)c(O)c1 [KA, Kukoamine A] | significant neutralizing activity | – | – | high affinity | – | –
